Measured values: ChEMBL document CHEMBL1201862, “PubChem BioAssay data set” (2004)
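Dose response: 5 concentrations. Exposure: 48 h. Format: 96-well plates. Endpoint: linear interpolation; highest concentration if not reached. GI50 = concentration required for 50% inhibition of growth.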 The source made the active and inactive calls. No stated cut-off is given here; in the data, active = GI50 up to about 1.1 µM and inactive = higher. Non-standard residues stand in square brackets, D forms with d. Residues, ends and D or L forms follow the SMILES beside them. *: point of attachment. NMeF = CN[CH](Cc1ccccc1)C(=O)O; NMeV = CN[CH](C(=O)O)C(C)C; Boc = CC(C)(C)OC(=O)*

Tests used:
Assay in all cases: NCI-60 cell line screen, 48 h
[1] = tested on: A549
[2] = tested on: SK-MEL-28
[3] = tested on: HCT-15
[4] = tested on: COLO 205
[5] = tested on: K562
[6] = tested on: UO-31
[7] = tested on: SK-MEL-2
[8] = tested on: NCI-H23
[9] = tested on: NCI-H522
[10] = tested on: EKVX
[11] = tested on: SK-MEL-5
[12] = tested on: RPMI-8226
[13] = tested on: SF-539
[14] = tested on: MDA-MB-231
[15] = tested on: NCI-H460
[16] = tested on: TK-10
[17] = tested on: IGROV-1
[18] = tested on: SF-295
[19] = tested on: M19-MEL
[20] = tested on: SNB-78

Row | Compound | GI50 [1] | GI50 [2] | GI50 [3] [µM] | GI50 [4] | GI50 [5] | GI50 [6] | GI50 [7] | GI50 [8] | GI50 [9] | GI50 [10] | GI50 [11] | GI50 [12] | GI50 [13] | GI50 [14] | GI50 [15] | GI50 [16] | GI50 [17] | GI50 [18] | GI50 [19] | GI50 [20]
1 | COC1=CC(=O)c2c(c(COP(=O)(N(C)CCBr)N(C)CCBr)cn2C)C1=O | < 0.01 µM (active) | 0.141 µM (active) | < 0.0234 | 0.0521 µM (active) | 0.0398 µM (active) | < 0.0261 µM (active) | 0.15 µM (active) | < 0.0326 µM (active) | 0.138 µM (active) | 0.211 µM (active) | 0.0836 µM (active) | 0.0323 µM (active) | < 0.0114 µM (active) | 0.296 µM (active) | < 0.01 µM (active) | 0.17 µM (active) | 1.17 µM (inactive) | < 0.01 µM (active) | – | –
2 | O=C(O)c1ccc(Oc2nc3ccccc3s2)cc1 | > 100 µM (inactive) | > 100 µM (inactive) | > 100 | > 100 µM (inactive) | > 100 µM (inactive) | > 100 µM (inactive) | > 100 µM (inactive) | > 100 µM (inactive) | > 100 µM (inactive) | > 100 µM (inactive) | > 100 µM (inactive) | 74 µM (inactive) | > 100 µM (inactive) | > 100 µM (inactive) | > 100 µM (inactive) | > 100 µM (inactive) | > 100 µM (inactive) | > 100 µM (inactive) | – | –
3 | CCOC(=O)c1ncn2c1[nH]c(=S)c1ccccc12 | > 100 µM (inactive) | > 100 µM (inactive) | > 100 | 49.8 µM (inactive) | 91.6 µM (inactive) | > 100 µM (inactive) | > 100 µM (inactive) | > 100 µM (inactive) | 73.6 µM (inactive) | > 100 µM (inactive) | > 100 µM (inactive) | 31.3 µM (inactive) | > 100 µM (inactive) | – | > 100 µM (inactive) | > 100 µM (inactive) | > 100 µM (inactive) | > 100 µM (inactive) | > 100 µM (inactive) | –
4 | [N-]=[N+]=Nc1cc(=O)oc2ccccc12 | > 100 µM (inactive) | > 100 µM (inactive) | > 100 | > 100 µM (inactive) | > 100 µM (inactive) | > 100 µM (inactive) | > 100 µM (inactive) | > 100 µM (inactive) | > 100 µM (inactive) | – | > 100 µM (inactive) | > 100 µM (inactive) | > 100 µM (inactive) | – | > 100 µM (inactive) | > 100 µM (inactive) | > 100 µM (inactive) | > 100 µM (inactive) | > 100 µM (inactive) | –
5 | CC12CCC3=C(CSC4=C3CSc3ccccc34)C1=CCCC2=O (configuration not stated) | 36.5 µM (inactive) | > 100 µM (inactive) | 29.8 | 20.3 µM (inactive) | 40.8 µM (inactive) | 70.1 µM (inactive) | 64.3 µM (inactive) | > 100 µM (inactive) | 27.4 µM (inactive) | 42.5 µM (inactive) | 17.4 µM (inactive) | 61.2 µM (inactive) | 75.7 µM (inactive) | – | 45.2 µM (inactive) | 38 µM (inactive) | – | – | 86.9 µM (inactive) | –
6 | CCCO/N=[N+](\[O-])N(CC)CC | > 100 µM (inactive) | > 100 µM (inactive) | > 100 | – | > 100 µM (inactive) | > 100 µM (inactive) | > 100 µM (inactive) | > 100 µM (inactive) | > 100 µM (inactive) | > 100 µM (inactive) | > 100 µM (inactive) | – | > 100 µM (inactive) | – | > 100 µM (inactive) | > 100 µM (inactive) | > 100 µM (inactive) | > 100 µM (inactive) | – | > 100 µM (inactive)
7 | O=C1C=C(NCCc2cc(Br)c(O)c(Br)c2)C(=O)c2[nH]cnc21 | 32 µM (inactive) | 39.7 µM (inactive) | 18 | 24.7 µM (inactive) | 14.9 µM (inactive) | 75 µM (inactive) | 23.4 µM (inactive) | 10.8 µM (inactive) | 21.2 µM (inactive) | 96.2 µM (inactive) | 15.6 µM (inactive) | > 10 µM (inactive) | 22.4 µM (inactive) | 29.4 µM (inactive) | 11.1 µM (inactive) | 89.7 µM (inactive) | 17.6 µM (inactive) | 30.5 µM (inactive) | – | –
8 | COc1ccc2ccccc2c1C1=NC(C)(C)CO1 | > 100 µM (inactive) | > 100 µM (inactive) | > 100 | > 100 µM (inactive) | > 100 µM (inactive) | > 100 µM (inactive) | > 100 µM (inactive) | > 100 µM (inactive) | > 100 µM (inactive) | > 100 µM (inactive) | > 100 µM (inactive) | > 100 µM (inactive) | > 100 µM (inactive) | – | > 100 µM (inactive) | > 100 µM (inactive) | > 100 µM (inactive) | > 100 µM (inactive) | > 100 µM (inactive) | –
9 | O=C1CC(n2ccnc2)c2c(Cl)sc(Cl)c21 (configuration not stated) | 24.5 µM (inactive) | 23.7 µM (inactive) | 14.2 | 18.2 µM (inactive) | 7.89 µM (inactive) | 14 µM (inactive) | 21.4 µM (inactive) | 14.9 µM (inactive) | 6.31 µM (inactive) | 19.2 µM (inactive) | 18.4 µM (inactive) | 2.28 µM (inactive) | 17.2 µM (inactive) | 18.9 µM (inactive) | 26 µM (inactive) | 20.2 µM (inactive) | 12.7 µM (inactive) | 27.4 µM (inactive) | – | –
10 | CCOC(=O)Oc1cc2c(ccn2C)c2c1c1ccccc1n2C(=O)OCC | > 100 µM (inactive) | > 100 µM (inactive) | > 100 | > 100 µM (inactive) | > 100 µM (inactive) | > 100 µM (inactive) | > 100 µM (inactive) | > 100 µM (inactive) | > 100 µM (inactive) | > 100 µM (inactive) | > 100 µM (inactive) | > 100 µM (inactive) | > 100 µM (inactive) | > 100 µM (inactive) | > 100 µM (inactive) | > 100 µM (inactive) | > 100 µM (inactive) | > 100 µM (inactive) | – | –
11 | CO[C@]12CC(=O)C3(C(C[C@H]4CC5CC=C6C[C@@H](OC(C)=O)CC[C@]6(OC(C)=O)C5C[C@@]43C)C1)C1C[C@H]3[C@@H]4CC=C5C[C@@H](OC(C)=O)CC[C@]5(OC(C)=O)[C@H]4CC[C@]3(C)C12 (some centres not stated) | 21.9 µM (inactive) | 30 µM (inactive) | 21.6 | 3.1 µM (inactive) | 8.85 µM (inactive) | 16.1 µM (inactive) | 18.1 µM (inactive) | 15.6 µM (inactive) | 14 µM (inactive) | 21.4 µM (inactive) | 3.53 µM (inactive) | 7.18 µM (inactive) | 19.6 µM (inactive) | 14.8 µM (inactive) | 16.3 µM (inactive) | 43.2 µM (inactive) | 20.1 µM (inactive) | 13.9 µM (inactive) | – | –
12 | COC(=O)c1ccc(/C=C/C2=CC(=O)C=CC2=O)cc1 | > 63.5 µM (inactive) | 20.8 µM (inactive) | 16.1 | 18.7 µM (inactive) | 2.43 µM (inactive) | 11.4 µM (inactive) | 24 µM (inactive) | 18.1 µM (inactive) | 1.8 µM (inactive) | 19.1 µM (inactive) | 20.8 µM (inactive) | 1.01 µM (active) | 10.5 µM (inactive) | 10.9 µM (inactive) | 23.9 µM (inactive) | 21.2 µM (inactive) | 16.7 µM (inactive) | 29.6 µM (inactive) | – | –
13 | CC1=C(C(=O)OC2CC3CCC2(C)C3(C)C)C2Nc3ccccc3N(C)C2O1 (configuration not stated) | 2.05 µM (inactive) | 5.02 µM (inactive) | 2.01 | 0.918 µM (active) | 3.66 µM (inactive) | 2.5 µM (inactive) | 2.35 µM (inactive) | 2.39 µM (inactive) | 1.93 µM (inactive) | 5.12 µM (inactive) | 1.69 µM (inactive) | 2.17 µM (inactive) | 3.04 µM (inactive) | 3.01 µM (inactive) | 1.6 µM (inactive) | 4.07 µM (inactive) | 1.77 µM (inactive) | 1.72 µM (inactive) | – | –
14 | C[N+](C)(CCCCCC[N+](C)(C)CCCN1C(=O)c2cccc3cccc(c23)C1=O)CCCN1C(=O)c2cccc3cccc(c23)C1=O | > 100 µM (inactive) | > 100 µM (inactive) | > 100 | > 100 µM (inactive) | > 100 µM (inactive) | > 100 µM (inactive) | > 100 µM (inactive) | > 100 µM (inactive) | > 100 µM (inactive) | > 100 µM (inactive) | > 100 µM (inactive) | > 100 µM (inactive) | > 100 µM (inactive) | 56.2 µM (inactive) | > 100 µM (inactive) | > 100 µM (inactive) | > 100 µM (inactive) | 41.7 µM (inactive) | – | –
15 | O=C(NC1CCN(Cc2ccccc2)CC1)c1ccccc1I | 31.6 µM (inactive) | 17.8 µM (inactive) | 17.7 | 18.9 µM (inactive) | 23.3 µM (inactive) | 15.8 µM (inactive) | 23.4 µM (inactive) | 26.2 µM (inactive) | 14.4 µM (inactive) | 43.3 µM (inactive) | 16.9 µM (inactive) | 36.3 µM (inactive) | 23.2 µM (inactive) | 24.2 µM (inactive) | 24.7 µM (inactive) | 21.6 µM (inactive) | 42.6 µM (inactive) | 20.2 µM (inactive) | – | –
16 | CC(C)C(NC(=O)OC(C)(C)C)C(=O)N(C)C(Cc1ccccc1)C(=O)N(C)C(C(=O)N(C)C(C(=O)O)C(C)C)C(C)C (configuration not stated) (Boc-V[NMeF][NMeV][NMeV]-OH; configuration not given here) | > 100 µM (inactive) | > 100 µM (inactive) | > 100 | > 100 µM (inactive) | > 100 µM (inactive) | > 100 µM (inactive) | – | > 100 µM (inactive) | > 100 µM (inactive) | > 100 µM (inactive) | > 100 µM (inactive) | > 100 µM (inactive) | > 100 µM (inactive) | – | > 100 µM (inactive) | > 100 µM (inactive) | > 100 µM (inactive) | > 100 µM (inactive) | > 100 µM (inactive) | –
